Laboratory results from patent US20230277630A1, “METHODS AND COMPOSITIONS FOR TREATING AMYOTROPHIC LATERAL SCLEROSIS” (Amylyx Pharmaceuticals, Inc., priority 2022, published 2023).
Like-named read-outs stand apart in the source and are kept apart here.

How the values were obtained:
[1] = male, CD (Sprague-Dawley) IGS, rat, in vivo
[2] = target: MATE2K (Homo sapiens, UniProt Q86VL8)
[3] = Human Plasma Protein Binding; format: in vitro ADME
[4] = in vivo; settings: male, CD (Sprague-Dawley) IGS, rat; for Cmax: po, 840 mg/kg, Cmax plasma level
[5] = Non-specific binding assessment, uptake transporter format (cell-free poly-D-lysine plates); format: in vitro ADME; settings: cell-free poly-D-lysine-coated 24-well plates, without BSA pre-incubation, both matrices
Description: Two treatments (three wells each) were included: in the first treatment, the wells were pre-incubated for 5 minutes with HBSSg_7.4_BSA or HBSSg_8.5_BSA; in the second treatment, no pre-incubation was performed (Table 32). After the pre-incubation, the solution was aspirated, and dosing solution (500 μL) was added to each well. […] After the incubation, aliquots (200 μL) were withdrawn from each chamber, combined with an equal volume of acetonitrile containing IS, and stored at 4° C. until analysis.

[6] = target: T1, OCT2 (Homo sapiens, UniProt O15244)
T1 sequence (O15244 1-555): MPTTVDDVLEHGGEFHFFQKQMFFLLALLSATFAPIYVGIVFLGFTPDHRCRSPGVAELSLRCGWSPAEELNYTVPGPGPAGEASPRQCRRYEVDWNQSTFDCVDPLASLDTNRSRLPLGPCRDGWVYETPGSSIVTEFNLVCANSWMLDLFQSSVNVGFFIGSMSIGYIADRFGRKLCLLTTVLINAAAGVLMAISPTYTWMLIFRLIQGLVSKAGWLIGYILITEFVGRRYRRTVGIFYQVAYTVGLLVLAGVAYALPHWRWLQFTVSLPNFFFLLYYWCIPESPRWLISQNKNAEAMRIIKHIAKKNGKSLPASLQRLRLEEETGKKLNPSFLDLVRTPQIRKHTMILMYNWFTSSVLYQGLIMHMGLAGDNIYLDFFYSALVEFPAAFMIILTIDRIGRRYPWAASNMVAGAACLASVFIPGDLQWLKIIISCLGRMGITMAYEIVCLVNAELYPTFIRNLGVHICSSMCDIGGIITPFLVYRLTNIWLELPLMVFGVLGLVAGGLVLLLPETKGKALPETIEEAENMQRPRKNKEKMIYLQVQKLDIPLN

[7] = target: P-gp (Homo sapiens, UniProt P08183); assay: P-gp IC50 assessment, bidirectional digoxin transport in C2BBe1 cells
P-gp, sequence (P08183 whole entry): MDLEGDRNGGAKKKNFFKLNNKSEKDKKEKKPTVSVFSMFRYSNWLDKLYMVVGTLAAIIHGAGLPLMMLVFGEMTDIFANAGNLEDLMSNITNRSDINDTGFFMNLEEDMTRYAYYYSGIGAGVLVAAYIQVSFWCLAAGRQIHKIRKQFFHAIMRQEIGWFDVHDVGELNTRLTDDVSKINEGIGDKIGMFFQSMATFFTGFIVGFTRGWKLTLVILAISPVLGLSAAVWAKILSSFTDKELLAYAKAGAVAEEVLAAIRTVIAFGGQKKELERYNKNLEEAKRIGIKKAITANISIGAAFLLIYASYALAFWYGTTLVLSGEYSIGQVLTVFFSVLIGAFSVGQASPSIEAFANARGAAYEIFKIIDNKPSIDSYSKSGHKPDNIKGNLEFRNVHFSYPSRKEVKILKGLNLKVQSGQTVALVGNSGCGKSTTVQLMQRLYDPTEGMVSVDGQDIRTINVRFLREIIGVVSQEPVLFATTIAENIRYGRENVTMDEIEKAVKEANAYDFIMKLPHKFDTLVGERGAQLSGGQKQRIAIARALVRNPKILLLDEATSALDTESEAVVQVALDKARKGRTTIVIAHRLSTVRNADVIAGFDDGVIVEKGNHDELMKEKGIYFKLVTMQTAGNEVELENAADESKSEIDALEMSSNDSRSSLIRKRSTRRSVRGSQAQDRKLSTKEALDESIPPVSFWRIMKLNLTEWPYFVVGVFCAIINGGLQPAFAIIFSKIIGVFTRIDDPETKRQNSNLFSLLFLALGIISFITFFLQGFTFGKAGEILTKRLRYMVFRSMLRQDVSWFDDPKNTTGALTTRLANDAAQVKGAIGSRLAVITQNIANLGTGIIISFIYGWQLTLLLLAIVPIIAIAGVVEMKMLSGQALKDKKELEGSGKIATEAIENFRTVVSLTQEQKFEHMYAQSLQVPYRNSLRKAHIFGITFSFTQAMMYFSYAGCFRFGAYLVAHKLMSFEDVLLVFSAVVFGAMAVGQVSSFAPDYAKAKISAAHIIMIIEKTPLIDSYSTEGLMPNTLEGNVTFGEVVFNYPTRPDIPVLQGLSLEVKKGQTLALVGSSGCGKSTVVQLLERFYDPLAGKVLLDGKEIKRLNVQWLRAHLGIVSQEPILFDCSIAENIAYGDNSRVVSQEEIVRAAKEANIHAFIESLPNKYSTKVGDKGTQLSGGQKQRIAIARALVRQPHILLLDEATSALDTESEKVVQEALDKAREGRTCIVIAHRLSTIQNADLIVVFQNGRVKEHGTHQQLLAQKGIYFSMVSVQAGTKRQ
Description: After 30 minutes, the pre-incubation solution was aspirated.

[8] = target: T2, MATE1 (Homo sapiens, UniProt Q96FL8)
T2 sequence (Q96FL8 1-570): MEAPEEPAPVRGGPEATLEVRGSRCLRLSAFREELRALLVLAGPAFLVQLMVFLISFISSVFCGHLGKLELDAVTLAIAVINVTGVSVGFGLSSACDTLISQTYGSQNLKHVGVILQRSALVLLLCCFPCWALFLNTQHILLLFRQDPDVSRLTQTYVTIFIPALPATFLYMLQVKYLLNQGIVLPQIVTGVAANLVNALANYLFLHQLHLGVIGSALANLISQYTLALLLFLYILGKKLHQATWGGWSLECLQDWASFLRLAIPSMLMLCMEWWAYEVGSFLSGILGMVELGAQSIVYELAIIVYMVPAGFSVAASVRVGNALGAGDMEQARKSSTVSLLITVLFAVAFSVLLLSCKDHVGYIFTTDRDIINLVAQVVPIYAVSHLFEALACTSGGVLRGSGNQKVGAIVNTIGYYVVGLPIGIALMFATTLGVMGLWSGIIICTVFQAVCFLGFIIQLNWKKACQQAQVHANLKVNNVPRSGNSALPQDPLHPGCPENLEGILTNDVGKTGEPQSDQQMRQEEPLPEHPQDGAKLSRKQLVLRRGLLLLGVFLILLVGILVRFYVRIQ

[9] = target: hrCYP2C9 (Homo sapiens, UniProt P11712); settings: recombinant enzyme, 5 μM, pH 7.4
hrCYP2C9, sequence (P11712 whole entry): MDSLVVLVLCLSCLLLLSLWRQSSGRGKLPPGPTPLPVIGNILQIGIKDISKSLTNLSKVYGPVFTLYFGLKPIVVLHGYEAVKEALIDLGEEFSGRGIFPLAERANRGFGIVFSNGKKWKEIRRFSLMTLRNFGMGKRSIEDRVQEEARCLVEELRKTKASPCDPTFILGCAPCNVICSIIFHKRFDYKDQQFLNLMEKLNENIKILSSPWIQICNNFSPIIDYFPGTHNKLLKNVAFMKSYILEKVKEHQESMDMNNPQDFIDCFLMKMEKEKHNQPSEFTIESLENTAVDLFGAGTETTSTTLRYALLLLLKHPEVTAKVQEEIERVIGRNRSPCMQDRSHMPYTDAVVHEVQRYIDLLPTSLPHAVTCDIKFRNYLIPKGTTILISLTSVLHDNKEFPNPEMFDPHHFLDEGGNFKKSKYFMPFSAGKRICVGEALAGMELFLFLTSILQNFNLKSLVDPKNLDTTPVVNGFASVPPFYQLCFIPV
Description: (§1) The reaction was initiated by the addition of NADPH, followed by incubation at 37° C.
(§2) % Remaining of TA=100×At/A0
(§3) Where, At is the peak area ratio of TA to internal standard (IS) at time t, A0 is the average peak area ratio of TA to IS at time zero.

[10] = target: hrCYP2D6 (Homo sapiens, UniProt P10635); settings: recombinant enzyme, 5 μM, pH 7.4
hrCYP2D6, sequence (P10635 whole entry): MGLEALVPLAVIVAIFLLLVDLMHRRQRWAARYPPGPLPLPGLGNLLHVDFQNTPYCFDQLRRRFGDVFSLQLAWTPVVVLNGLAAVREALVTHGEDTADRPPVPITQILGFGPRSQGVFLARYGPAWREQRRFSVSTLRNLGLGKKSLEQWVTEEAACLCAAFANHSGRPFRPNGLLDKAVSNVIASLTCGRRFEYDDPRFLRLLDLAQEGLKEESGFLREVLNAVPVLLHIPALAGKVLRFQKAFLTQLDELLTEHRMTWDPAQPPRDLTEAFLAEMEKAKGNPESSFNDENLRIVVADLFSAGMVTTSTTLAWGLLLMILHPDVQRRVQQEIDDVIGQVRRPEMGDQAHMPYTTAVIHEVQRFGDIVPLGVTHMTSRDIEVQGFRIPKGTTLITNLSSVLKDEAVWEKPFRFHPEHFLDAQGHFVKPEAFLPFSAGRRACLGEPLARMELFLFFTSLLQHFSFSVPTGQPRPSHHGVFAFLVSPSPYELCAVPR
Description: as §1, §2, §3

[11] = target: T3, OATP1B1 (Homo sapiens, UniProt Q9Y6L6)
T3 sequence (Q9Y6L6 1-691): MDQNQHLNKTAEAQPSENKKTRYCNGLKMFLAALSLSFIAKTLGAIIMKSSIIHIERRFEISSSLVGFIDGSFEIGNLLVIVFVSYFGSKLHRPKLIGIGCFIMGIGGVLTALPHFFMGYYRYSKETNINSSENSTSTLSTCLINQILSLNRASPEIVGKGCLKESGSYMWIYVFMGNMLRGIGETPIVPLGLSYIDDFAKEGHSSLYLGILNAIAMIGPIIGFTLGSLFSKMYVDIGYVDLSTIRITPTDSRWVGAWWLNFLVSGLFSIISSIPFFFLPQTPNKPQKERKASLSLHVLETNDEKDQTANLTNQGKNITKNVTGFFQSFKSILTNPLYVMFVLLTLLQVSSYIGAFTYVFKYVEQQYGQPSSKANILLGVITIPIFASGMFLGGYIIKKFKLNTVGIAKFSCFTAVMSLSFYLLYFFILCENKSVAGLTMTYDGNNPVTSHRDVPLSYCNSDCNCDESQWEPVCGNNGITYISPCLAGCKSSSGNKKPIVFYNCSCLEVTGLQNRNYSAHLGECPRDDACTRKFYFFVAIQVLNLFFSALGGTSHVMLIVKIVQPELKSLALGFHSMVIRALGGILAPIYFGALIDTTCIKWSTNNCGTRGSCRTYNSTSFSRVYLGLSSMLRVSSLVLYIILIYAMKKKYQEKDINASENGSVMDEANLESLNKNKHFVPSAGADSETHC

MATE2K, sequence (Q86VL8 1-566 isoform Q86VL8-3): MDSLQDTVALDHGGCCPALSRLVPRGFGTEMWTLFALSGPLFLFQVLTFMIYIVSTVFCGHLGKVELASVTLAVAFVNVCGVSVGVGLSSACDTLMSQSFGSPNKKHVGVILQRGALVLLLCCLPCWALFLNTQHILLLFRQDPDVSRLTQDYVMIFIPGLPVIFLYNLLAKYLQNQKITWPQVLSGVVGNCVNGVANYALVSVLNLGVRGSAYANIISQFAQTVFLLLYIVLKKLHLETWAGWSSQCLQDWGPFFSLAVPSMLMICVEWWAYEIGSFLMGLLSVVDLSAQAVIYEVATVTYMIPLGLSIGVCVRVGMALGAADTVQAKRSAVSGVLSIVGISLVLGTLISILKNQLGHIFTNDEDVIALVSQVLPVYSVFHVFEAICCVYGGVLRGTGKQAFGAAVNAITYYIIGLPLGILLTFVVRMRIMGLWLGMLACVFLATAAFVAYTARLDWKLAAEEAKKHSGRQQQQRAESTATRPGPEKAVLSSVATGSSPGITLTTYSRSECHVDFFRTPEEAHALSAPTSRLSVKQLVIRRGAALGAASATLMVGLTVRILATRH

| Compound | IC50 [2] [µM] | fraction unbound [3] | Cmax [4] [ng/mL] | recovery at 5 min [5] [%] | IC50 [6] [µM] | IC50 [7] [µM] | IC50 [8] [µM] | % Remaining of TA ([9]; 0 h) [%] | % Remaining of TA ([9]; 20 min) [%] | % Remaining of TA ([9]; 1 h) [%] | % remained after 60 minutes of incubation ([9]; 1 h) | % Remaining of TA ([10]; 0 h) [%] | % Remaining of TA ([10]; 5 min) [%] | % Remaining of TA ([10]; 10 min) [%] | % Remaining of TA ([10]; 20 min) [%] | % Remaining of TA ([10]; 0.5 h) [%] | % Remaining of TA ([10]; 1 h) [%] | % remained after 60 minutes of incubation ([10]; 1 h) | IC50 [11] [µM] | other results |
| --- | --- | --- | --- | --- | --- | --- | --- | --- | --- | --- | --- | --- | --- | --- | --- | --- | --- | --- | --- | --- |
| O=C(O)CCCc1ccccc1 [PB, sodium phenylbutyrate] | > 73900 | 0.179 | 10200 | > 90 | > 14800 | 1790 to 5370 | 24600 to 73900 | 100 | 99.5 | 98.0 | greater than 90% | 100 | 99.9 | 96.7 | 97.6 | 101 | 100 | greater than 90% | 1210 to 3630 | plasma concentrations remained quantifiable through [1]: 4 h |
| C[C@H](CCC(=O)NCCS(=O)(=O)O)[C@H]1CC[C@H]2[C@@H]3[C@@H](O)C[C@@H]4C[C@H](O)CC[C@]4(C)[C@H]3CC[C@]12C [TUDCA, tauroursodeoxycholic acid] | > 810 | 0.015 | 298 | > 90 | > 162 | 222 to 667 | 270 to 810 | 100 | 98.5 | 90.3 | greater than 90% | 100 | 98.4 | 97.8 | 97.0 | 99.2 | 98.6 | greater than 90% | 12.9 to 38.7 | mean endogenous plasma levels over the 24 hour time course [1]: 130 to 222 ng/mL; Tmax ([4]; individual Tmax): 1 to 2 h; % Remaining of TA ([9]; 5 min): 96.0%; % Remaining of TA ([9]; 10 min): 98.8%; % Remaining of TA ([9]; 0.5 h): 97.8% |
